The assay deals with T1, human GPR119 (Homo sapiens, UniProt Q8TDV5).
T1 construct: expressed in transfected cells; host or cells: HEK293
T1 sequence (Q8TDV5 1-335): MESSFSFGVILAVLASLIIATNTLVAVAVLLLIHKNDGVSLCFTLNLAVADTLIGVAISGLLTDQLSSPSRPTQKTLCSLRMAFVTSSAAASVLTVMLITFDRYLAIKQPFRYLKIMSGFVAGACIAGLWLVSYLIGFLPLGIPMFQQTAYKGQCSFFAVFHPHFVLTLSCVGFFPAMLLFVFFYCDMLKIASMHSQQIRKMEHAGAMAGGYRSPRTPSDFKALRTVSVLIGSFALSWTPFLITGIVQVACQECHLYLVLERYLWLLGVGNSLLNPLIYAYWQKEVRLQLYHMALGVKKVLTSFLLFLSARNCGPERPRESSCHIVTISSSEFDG
Nature of the assay: Measurement of GPR119 signaling using LANCE 384-well cAMP kit (LCMP assay). The format is cell-based. Conditions: HEK293 cells stably transfected with human GPR119. The method, then: Measurement of GPR119 Signaling Using LANCE 384-Well cAMP Kit (LCMP Assay)
Human embryonic kidney (HEK) 293 cell lines stably transfected with human GPR119 were maintained in DMEM media containing FBS, penicillin-streptomycin, HEPES, and hygromycin. For the cAMP assay, the transfected cells were harvested using a non-enzymatic cell dissociation solution (GIBCO 2672), pelleted and resuspended in stimulation buffer (DMEM, 25 mM Hepes, 0.1% BSA, pH 7.4 in the presence of 100 μM phosphodiesterase inhibitors). The adenylate cyclase assay was constructed following the LANCE™ cAMP Kit (Perkin Elmer, AD0264) instructions. Briefly, cells with Alexa Fluor® 647-anti cAMP antibody were incubated with 10 point series diluted test article in stimulation buffer with a final concentration of 2.5% DMSO for 45 minutes. The reaction was stopped by incubating with the supplied detection buffer containing the europium chelate of the Eu-SA/Biotin-cAMP tracer for 3 hours. The assay was performed in duplicate in a 384 well plate for duplicate plates. Fluorescence at 665 nm was measured using a PHERAstar instrument. Basal activity was determined using a DMSO control and maximum response was defined as cAMP stimulation produced by an internal agonist control. Standard cAMP concentrations were assayed concurrently for conversion of fluorescence signal to cAMP level. The data was analyzed using 4-parameter curve fit in Microsoft Excel.
`CC(C)c1noc(N2CCC([C@H]3C[C@@H]3CCOc3ccc(CC(=O)N4CCC4)c(F)c3)CC2)n1` [Example 72, 1-(azetidin-1-yl)-2-(2-fluoro-4-(2-((1R,2R)-2-(1-(3-isopropyl-1,2,4-oxadiazol-5-yl)piperidin-4-yl)cyclopropyl)ethoxy)phenyl)ethanone] had an EC50 of 2.6 nM.

`O=C(Cc1ccc(OCC[C@H]2C[C@@H]2C2CCN(c3ncc(Cl)cn3)CC2)c(F)c1)N1CCC1` [Example 35, 1-(azetidin-1-yl)-2-(4-(2-((1R,2R)-2-(1-(5-chloropyrimidin-2-yl)piperidin-4-yl)cyclopropyl)ethoxy)-3-fluorophenyl)ethanone]: the midpoint of the response, the EC50, lay at 4.6 nM.

Molecule `CN(C)C(=O)Cc1ccc(OCC[C@@H]2C[C@H]2C2CCN(C(=O)OC3(C)CC3)CC2)cc1F` [Example 99, 1-methylcyclopropyl 4-((1S,2S)-2-(2-(4-(2-(dimethylamino)-2-oxoethyl)-3-fluorophenoxy)ethyl)cyclopropyl)piperidine-1-carboxylate] showed an EC50 of 8.8 nM.

In the case of `CC(C)c1noc(N2CCC([C@@H]3C[C@H]3CCOc3ccc(CC(=O)N4CCC4)cc3F)CC2)n1` [Example 70, 1-(azetidin-1-yl)-2-(3-fluoro-4-(2-((1S,2S)-2-(1-(3-isopropyl-1,2,4-oxadiazol-5-yl)piperidin-4-yl)cyclopropyl)ethoxy)phenyl)ethanone], the EC50 was found to be 6.8 nM.

As for `CC(C)c1noc(N2CCC([C@H]3C[C@@H]3CCOc3ccc(CC(=O)N(C)C)c(F)c3)CC2)n1` [Example 75, 2-(2-fluoro-4-(2-((1R,2R)-2-(1-(3-isopropyl-1,2,4-oxadiazol-5-yl)piperidin-4-yl)cyclopropyl)ethoxy)phenyl)-N,N-dimethylacetamide], a half-maximal effect (EC50) was put at 8.1 nM.

The molecule `CS(=O)(=O)c1ccc(OCC[C@H]2C[C@@H]2C2CCN(c3ncc(Cl)cn3)CC2)cc1F` [Example 25, 5-chloro-2-(4-((1R,2R)-2-(2-(3-fluoro-4-(methylsulfonyl)phenoxy)ethyl)cyclopropyl)piperidin-1-yl)pyrimidine] returned a concentration for a half-maximal effect (EC50) of 4.1 nM.

Regarding `CC(C)c1noc(N2CCC([C@H]3C[C@@H]3CCOc3cc(F)c(CC(=O)N4CCC4)c(F)c3)CC2)n1` [Example 79, 1-(azetidin-1-yl)-2-(2,6-difluoro-4-(2-((1R,2R)-2-(1-(3-isopropyl-1,2,4-oxadiazol-5-yl)piperidin-4-yl)cyclopropyl)ethoxy)phenyl)ethanone], the EC50 was 0.55 nM.

The molecule `CC1(OC(=O)N2CCC([C@@H]3C[C@H]3CCOc3ccc(CC(=O)N4CCC4)cc3F)CC2)CC1` [Example 108, 1-methylcyclopropyl 4-((1S,2S)-2-(2-(4-(2-(azetidin-1-yl)-2-oxoethyl)-2-fluorophenoxy)ethyl)cyclopropyl)piperidine-1-carboxylate] returned an EC50 of 24 nM.

Molecule `COCc1cnc(N2CCC([C@@H]3C[C@H]3CCOc3ccc(CC(=O)N4CCC4)c(F)c3)CC2)nc1` [Example 48, 1-(azetidin-1-yl)-2-(2-fluoro-4-(2-((1S,2S)-2-(1-(5-(methoxymethyl)pyrimidin-2-yl)piperidin-4-yl)cyclopropyl)ethoxy)phenyl)ethanone] returned an EC50 of 8.5 nM.

Turning to `COCc1cnc(N2CCC([C@H]3C[C@@H]3CCOc3ccc(CC(=O)N4CCC4)c(F)c3)CC2)nc1` [Example 51, 1-(azetidin-1-yl)-2-(2-fluoro-4-(2-((1R,2R)-2-(1-(5-(methoxymethyl)pyrimidin-2-yl)piperidin-4-yl)cyclopropyl)ethoxy)phenyl)ethanone], the EC50 turned out to be 3.4 nM.

Molecule `CC(C)c1noc(N2CCC([C@@H]3C[C@H]3CCOc3ccc(CC(=O)N4CCC4)cn3)CC2)n1` [Example 121, 1-(azetidin-1-yl)-2-(6-(2-((1S,2S)-2-(1-(3-isopropyl-1,2,4-oxadiazol-5-yl)piperidin-4-yl)cyclopropyl)ethoxy)pyridin-3-yl)ethanone] had a concentration giving a half-maximal response (EC50) of 24 nM.

In the case of `COCc1noc(N2CCC([C@H]3C[C@@H]3CCOc3cc(F)c(CC(=O)N(C)C)c(F)c3)CC2)n1` [Example 84, 2-(2,6-difluoro-4-(2-((1R,2R)-2-(1-(3-(methoxymethyl)-1,2,4-oxadiazol-5-yl)piperidin-4-yl)cyclopropyl)ethoxy)phenyl)-N,N-dimethylacetamide], the EC50 was found to be 3 nM.

The molecule `CCc1cnc(N2CCC([C@@H]3C[C@H]3CCOc3cc(F)cc(F)c3CC(=O)N3CCC3)CC2)nc1` [Example 118, 1-(azetidin-1-yl)-2-(2-(2-((1S,2S)-2-(1-(5-ethylpyrimidin-2-yl)piperidin-4-yl)cyclopropyl)ethoxy)-4,6-difluorophenyl)ethanone] came in with an EC50 of 17 nM.

`CCc1cnc(N2CCC([C@H]3C[C@@H]3CCOc3ccc(CC(=O)N4CCC4)cn3)CC2)nc1` [Example 115, 1-(azetidin-1-yl)-2-(6-(2-((1R,2R)-2-(1-(5-ethylpyrimidin-2-yl)piperidin-4-yl)cyclopropyl)ethoxy)pyridin-3-yl)ethanone] displayed an EC50 of 10 nM.

For `CCc1cnc(N2CCC([C@@H]3C[C@H]3CCOc3ccc(-n4cnnn4)cc3F)CC2)nc1` [Example 40, 5-ethyl-2-(4-((1S,2S)-2-(2-(2-fluoro-4-(1H-tetrazol-1-yl)phenoxy)ethyl)cyclopropyl)piperidin-1-yl)pyrimidine], the EC50 came to 5 nM.

As for `Fc1cc(-n2cnnn2)ccc1OCC[C@H]1C[C@@H]1C1CCN(c2ncc(Cl)cn2)CC1` [Example 58, 5-chloro-2-(4-((1R,2R)-2-(2-(2-fluoro-4-(1H-tetrazol-1-yl)phenoxy)ethyl)cyclopropyl)piperidin-1-yl)pyrimidine], the EC50 came out at 11 nM.

In turn, `CC(C)c1noc(N2CCC([C@@H]3C[C@H]3CCOc3ccc(-n4cnnn4)cc3F)CC2)n1` [Example 67, 5-(4-((1S,2S)-2-(2-(2-fluoro-4-(1H-tetrazol-1-yl)phenoxy)ethyl)cyclopropyl)piperidin-1-yl)-3-isopropyl-1,2,4-oxadiazole] registered an EC50 of 6.2 nM.

As to `CCc1cnc(N2CCC([C@@H]3C[C@H]3CCOc3cc(F)c(CC(=O)N4CCC4)c(F)c3)CC2)nc1` [Example 50, 1-(azetidin-1-yl)-2-(4-(2-((1S,2S)-2-(1-(5-ethylpyrimidin-2-yl)piperidin-4-yl)cyclopropyl)ethoxy)-2,6-difluorophenyl)ethanone], the EC50 turned out to be 0.35 nM.

In turn, `CC(C)c1noc(N2CCC([C@H]3C[C@@H]3CCOc3ccc(S(C)(=O)=O)cn3)CC2)n1` [Example 110, 3-isopropyl-5-(4-((1R,2R)-2-(2-(5-(methylsulfonyl)pyridin-2-yloxy)ethyl)cyclopropyl)piperidin-1-yl)-1,2,4-oxadiazole] came in with an EC50 of 18 nM.

Molecule `COCc1cnc(N2CCC([C@H]3C[C@@H]3COCc3ccc(S(C)(=O)=O)cc3F)CC2)nc1` [Example 11, 2-(4-((1R,2S)-2-(((2-fluoro-4-(methylsulfonyl)benzyl)oxy)methyl)cyclopropyl)piperidin-1-yl)-5-(methoxymethyl)pyrimidine] displayed an EC50 of 7.1 nM.

`CC(C)c1noc(N2CCC([C@H]3C[C@@H]3CCOc3ccc(-n4cnnn4)cc3F)CC2)n1` [Example 68, 5-(4-((1R,2R)-2-(2-(2-fluoro-4-(1H-tetrazol-1-yl)phenoxy)ethyl)cyclopropyl)piperidin-1-yl)-3-isopropyl-1,2,4-oxadiazole]: the EC50 is 3.5 nM.

Consider `COCc1noc(N2CCC([C@@H]3C[C@H]3CCOc3ccc(CC(=O)N4CCC4)c(F)c3)CC2)n1` [Example 91, 1-(azetidin-1-yl)-2-(2-fluoro-4-(2-((1S,2S)-2-(1-(3-(methoxymethyl)-1,2,4-oxadiazol-5-yl)piperidin-4-yl)cyclopropyl)ethoxy)phenyl)ethanone], for which the EC50 is 19 nM.

As to `CC(C)c1noc(N2CCC([C@H]3C[C@@H]3CCOc3cc(F)c(CC(=O)N(C)C)c(F)c3)CC2)n1` [Example 81, 2-(2,6-difluoro-4-(2-((1R,2R)-2-(1-(3-isopropyl-1,2,4-oxadiazol-5-yl)piperidin-4-yl)cyclopropyl)ethoxy)phenyl)-N,N-dimethylacetamide], the EC50 turned out to be 0.67 nM.

Turning to `COCc1cnc(N2CCC([C@H]3C[C@@H]3CCOc3ccc(CC(=O)N(C)C)c(F)c3)CC2)nc1` [Example 53, 2-(2-fluoro-4-(2-((1R,2R)-2-(1-(5-(methoxymethyl)pyrimidin-2-yl)piperidin-4-yl)cyclopropyl)ethoxy)phenyl)-N,N-dimethylacetamide], the EC50 was 5.9 nM.

`CCc1cnc(N2CCC([C@H]3C[C@@H]3CCOc3ccc(N4CCNC4=O)c(F)c3)CC2)nc1` [Example 43, 1-(4-(2-((1R,2R)-2-(1-(5-ethylpyrimidin-2-yl)piperidin-4-yl)cyclopropyl)ethoxy)-2-fluorophenyl)imidazolidin-2-one] displayed an EC50 of 9.6 nM.

The EC50 is the concentration that produces a half-maximal response. Low readings indicate higher potency in that assay, high ones lower potency in that assay.

The values above are taken from patent publication US20150274664A1 (MERCK SHARP & DOHME CORP., priority 2012, published 2015).
